Laboratory results from ChEMBL document CHEMBL1154198, “Chemical genetics of Plasmodium falciparum” (Nature, 2010).

Tests used:
Plasmodium falciparum [1] = test: ST_JUDE: Plasmodium falciparum K1 EC50 (uM) as measured by SYBR green dye; format: functional, organism-based
Plasmodium falciparum [2] = test: ST_JUDE: Plasmodium falciparum 3D7 EC50 (uM) as measured by SYBR green dye; format: functional, organism-based

Structure (SMILES) | EC50 (Plasmodium falciparum [1]) | EC50 (Plasmodium falciparum [2])
CN(C)CCCNc1c2ccccc2nc2ccccc12 | 3.71 µM | 0.531 µM
CN(C)c1ccc(Nc2c3ccccc3nc3ccccc23)cc1 | 1.11 µM | 1.46 µM
O=C(Nc1ccc(Br)cc1)Nc1cccc(Cl)c1 | 5.49 µM | > 15 µM
CCOc1ccc(Nc2cc(C)nc(Nc3ccc(OCC)cc3)n2)cc1 | > 15 µM | > 15 µM
COc1ccc2nc(C)cc(Nc3ccc(Cl)c(Cl)c3)c2c1 | 4.84 µM | 1.14 µM
CCOc1ccc(Nc2nc(N)c3ccccc3n2)cc1 | > 15 µM | 3.23 µM
Oc1ccc(Cl)cc1Nc1nc(C(F)(F)F)nc2ccccc12 | 0.638 µM | 1.2 µM
O=C(Nc1ccccc1Cl)c1cc2ccccc2cc1O | 0.547 µM | > 15 µM
CC(=O)N(C1=C(N2CCCCC2)C(=O)c2ccccc2C1=O)c1ccc(F)cc1 | 3.89 µM | 2.72 µM
CCSCCN1C(=O)CSC1c1cnccc1-c1ccc(Br)cc1 (centres undefined) | > 15 µM | 4.91 µM
COC(=O)c1ccc(NC(=O)CN(Cc2ccc(Cl)cc2)S(=O)(=O)c2ccccc2)cc1 | 5.1 µM | 7.32 µM
CCN(CC)S(=O)(=O)c1ccc(C(=O)NNc2nc3c(OC)ccc(OC)c3s2)cc1 | 3.93 µM | > 15 µM
COc1ccc(N2CCN(C(=S)Nc3ccccc3Cl)CC2C)cc1 (centres undefined) | 3.56 µM | 1.4 µM
Cc1ccc(-c2nc(C(=O)N(CCC#N)Cc3cccnc3)cs2)cc1F | 4.68 µM | 3.34 µM
CN(C)c1ccc(N2C(N)=NC(N)=NC2(C)C)cc1 | > 15 µM | 0.0728 µM
CCCCCCOC(=O)c1[nH]c2c(c1C)C(=O)CC(c1ccco1)C2 (centres undefined) | 2.03 µM | 2.52 µM
CC(C)(C)c1ccc(C(=O)Nc2nc3ccccc3s2)cc1 | > 15 µM | > 15 µM
CCc1ccc(C2C(C(=O)OC)=C(N)OC3=C2C(=O)CC(C)(C)C3)cc1 (centres undefined) | > 15 µM | > 15 µM
Cc1cc(O)nc(-n2nc(C)cc2NC(=O)c2cc(C(F)(F)F)cc(C(F)(F)F)c2)n1 | > 15 µM | > 15 µM
CCOc1cccc2sc(N(Cc3cccnc3)C(=O)C3CCCCC3)nc12 | 2.23 µM | 3.04 µM
COC(=O)c1ccc(OCC2c3cc(OC)c(OC)cc3CCN2C(=O)Nc2ccccc2)cc1 (centres undefined) | 2.93 µM | 4.83 µM
COc1ccccc1NC(=O)CN1CCN(C(=O)c2ccco2)CC1 | 4.84 µM | 2.84 µM

Structure (SMILES) | EC50 (Plasmodium falciparum [1]) | EC50 (Plasmodium falciparum [2])
CCN(CC)CCn1c(=N)n(CC(O)COc2ccccc2C)c2ccccc21 (centres undefined) | 4.48 µM | 4.06 µM
COC(=O)c1cn(NC(=O)c2cccc(F)c2)c(=O)c2ccccc12 | > 15 µM | 6.66 µM
Cc1ccc2ccc(C(Nc3ccccn3)c3cccc(Br)c3)c(O)c2n1 (centres undefined) | 4.78 µM | > 15 µM
O=C(Nc1c2c(nn1-c1ccc([N+](=O)[O-])cc1)CSC2)c1ccc(C(=O)c2ccccc2)cc1 | 4.08 µM | > 15 µM
O=C(NCCc1ccncc1)Nc1ccc([N+](=O)[O-])cc1 | > 15 µM | > 15 µM
Cc1ccc(/C=C2\C(=O)NC(=O)N(c3ccc(Br)cc3)C2=O)cc1[N+](=O)[O-] | 5.16 µM | 4.47 µM
CCc1cc(Br)ccc1NC(=O)Nc1ccc([N+](=O)[O-])cc1 | > 15 µM | > 15 µM
COc1ccc(C)cc1NC(=S)N1CCN(c2ccc([N+](=O)[O-])cc2)CC1 | 1.92 µM | 1.34 µM
COC(=O)CNC(c1ccccc1)c1cc(Br)ccc1NC(=O)c1ccc(OC)cc1 (centres undefined) | 4.33 µM | 4.22 µM
CCN1CCN(c2cc(C)c3cc(NC(=S)NCCCN4CC(C)CC(C)C4)ccc3n2)CC1 (centres undefined) | > 15 µM | 5.34 µM
C#CCOc1ccc(C2C(C#N)=C(N)Oc3c2ccc2ccccc32)cc1OC (centres undefined) | 4.08 µM | 0.414 µM
COCCN1C(=O)c2ccccc2C(C(=O)Nc2ccc(OC)c(Cl)c2)C1c1cccs1 (centres undefined) | 2.48 µM | 2.01 µM
Cc1cccc(NS(=O)(=O)c2cc3c4c(c2)CCN4C(=O)CC3)c1 | > 15 µM | > 15 µM
Cc1ccc2c(c1)N(C)/C(=C/c1cccc[n+]1CCO)S2 | 1.56 µM | 1.78 µM
CCOC(=O)C1=C(c2ccccc2)N=c2s/c(=C\c3cccc(O)c3)c(=O)n2C1c1cccc(OC)c1OC (centres undefined) | 2.18 µM | 3.26 µM
COc1ccc(S(=O)(=O)/N=C2/C=C(Sc3nc[nH]n3)C(=O)c3ccccc32)cc1 | 2.34 µM | 1.94 µM
COc1ccc(C(O)(CCC(C)C)C(CN2CCOCC2)c2ccc(Cl)cc2)cc1 (centres undefined) | 3.5 µM | 4.61 µM
COC(=O)c1ccc(Nc2nc(NCc3ccccc3)c3ccccc3n2)cc1 | > 15 µM | 1.11 µM
COc1cc(CNc2cccc(Cl)c2)cc(I)c1OC | 4.1 µM | 3.96 µM
COc1ccc(C2C(C#N)=C(N)Oc3c2ccc2ccccc32)cc1OC (centres undefined) | 8.61 µM | 1.45 µM
Oc1ccc(Br)cc1CN1CCN(Cc2cccc(Cl)c2)CC1 | 0.338 µM | 1.79 µM
O=C(Nc1cccc(Cl)c1)C1c2ccccc2C(=O)N(C2CCCC2)C1c1cccs1 (centres undefined) | 0.326 µM | 0.297 µM

Structure (SMILES) | EC50 (Plasmodium falciparum [1]) | EC50 (Plasmodium falciparum [2])
COCCn1c(SCC(=O)Nc2cc(C(F)(F)F)ccc2Cl)nc2c(c1=O)SC(C)C2 (centres undefined) | 0.568 µM | > 15 µM
CSc1cccc(NC(=O)Cn2c(C)c(C=O)c3ccccc32)c1 | 4.29 µM | 4.56 µM
CS(=O)(=O)Nc1ccc2c(c1)CCCN2C(=O)c1cccs1 | 7.55 µM | > 15 µM
CCN(CC)S(=O)(=O)c1ccc(C(=O)NNc2nc3c(C)cccc3s2)cc1 | > 15 µM | > 15 µM
CC(C)Cn1c2c(c(=N)c3c1CCC3)CCCC2 | 3.78 µM | 2.25 µM
CCCO/C(O)=C1\C(C)=NC2=C(C(=O)CC(c3ccccc3OC)C2)C1c1ccc([N+](=O)[O-])cc1 (centres undefined) | 1.15 µM | 0.759 µM
CCOC(=O)CCc1c(C)c2cc3c(c(C)c2oc1=O)OCN(Cc1ccccc1OC)C3 | 1.22 µM | 3.04 µM
O=S(=O)(/N=C(\Nc1ccc(Br)cc1)c1ccccc1)c1ccccc1 | > 15 µM | > 15 µM
C=CCNC(=S)N1CCc2cc(OC)c(OC)cc2C1c1ccccc1 (centres undefined) | 3.73 µM | 3.85 µM
CCOC(=O)N1CCC(NC(=S)Nc2ccc(C(C)(C)C)cc2)CC1 | 2.64 µM | 9.44 µM
Cc1cccc(CN2C(=O)/C(=C\c3ccc(C(=O)N4CCC(N5CCCCC5)CC4)cc3)Oc3ccccc32)c1 | > 15 µM | 4.03 µM
Cc1ccc(CN2CCCN(Cc3ccc(F)cc3)C2c2ccccc2F)cc1 (centres undefined) | > 15 µM | 4.18 µM
COC(=O)c1c(S(=O)(=O)N2CCCN(C)CC2)sc2c1CCN(CC(C)c1ccccc1)C2 (centres undefined) | > 15 µM | > 15 µM
Cc1nn(-c2ccccc2)c2ncc(C(=O)Nc3cccc(Cl)c3)c(O)c12 | 4.31 µM | > 15 µM
COc1cc2c(cc1OC)C(C(=O)Nc1ccc(C(C)C)cc1)C(c1cccs1)N(C)C2=O (centres undefined) | 3.45 µM | > 15 µM
CCOC(=O)c1ccc2nc(C)cc(Nc3ccc(OC)cc3)c2c1 | > 15 µM | 2.86 µM
CC1CN(C(=O)c2ccc(I)cc2)CC(C)O1 (centres undefined) | 1.52 µM | 2.73 µM
CCN(CC)CCNC(=O)c1ccc2c(c1)sc1nc(-c3ccc(F)cc3)cn12 | 1.92 µM | 0.974 µM
CCOc1ccc(NC(=O)CSc2nncc(O)n2)cc1 | 0.994 µM | 0.734 µM
CCC(=O)N(Cc1ccccn1)c1nc2ccccc2s1 | > 15 µM | > 15 µM
CC(C)CC(=O)NC(c1ccc(Cl)cc1Cl)c1ccc2cccnc2c1O (centres undefined) | > 15 µM | > 15 µM
CCC(C)NC(=O)N1CCC(n2nccc2NC(=O)CCCc2ccccc2)CC1 (centres undefined) | > 15 µM | > 15 µM

Structure (SMILES) | EC50 (Plasmodium falciparum [1]) | EC50 (Plasmodium falciparum [2])
CCCN1C(=O)c2[nH]nc(-c3c(C)cc(C)cc3O)c2C1c1cccc(OC)c1 (centres undefined) | 2.68 µM | 5.09 µM
CCN(CC)c1cc(C)nc(Nc2ccc(NS(=O)(=O)c3cc(C)ccc3OC)cc2)n1 | > 15 µM | 4.17 µM
CCc1c(C)c2cc3c(c(C)c2oc1=O)OCN(CCc1ccccc1OC)C3 | 0.223 µM | 0.757 µM
O=C1C2CC=C(Cl)CC2C(=O)N1CCCCO (centres undefined) | 1.47 µM | 3.32 µM
COc1[nH]cnc2c3cc(C)ccc3nc1-2 | > 15 µM | > 15 µM
CCC1CCCCN1CC(O)COCCC12CC3CC(CC(C3)C1)C2 (centres undefined) | 2.68 µM | 7.2 µM
COc1ccc(-c2nn(C)c3sc(C(=O)Nc4cccc(Cl)c4)cc23)cc1OC | 6.94 µM | > 15 µM
COc1cc(C(=O)NCC(C)Oc2cccc(CN(C)Cc3cscn3)c2)cc(OC)c1OC (centres undefined) | > 15 µM | > 15 µM
Cc1c(C(=O)NCCCn2ccnc2)sc2nc(-c3cccc([N+](=O)[O-])c3)cn12 | 9.22 µM | > 15 µM
CCOc1ccc(NC(=O)C2Sc3nnc(-c4ccccc4)n3NC2c2ccc(OC)cc2)cc1 (centres undefined) | > 15 µM | > 15 µM
CCCCCC(O)(c1ccc(F)cc1)C(CN1CCOCC1)c1ccc(Cl)cc1 (centres undefined) | 0.935 µM | 1.83 µM
C=CCNc1c2c(nc3ccccc13)CCC2 | 1.15 µM | 3.24 µM
CC(=O)N(C1=C(N(C)C)C(=O)c2ccccc2C1=O)c1cccc(I)c1 | 0.0862 µM | 0.0566 µM
Oc1c(CN2CCN(Cc3ccc4cccnc4c3O)CC2)ccc2cccnc12 | 6.32 µM | > 15 µM
C=CC[n+]1c(C)n(N)c2ccccc21 | > 15 µM | > 15 µM
Cc1ccc(-c2nc3ccccc3o2)cc1NC(=O)C(Cl)(Cl)Cl | 1.7 µM | 4.07 µM
Cc1ccc(CN2CCN(Cc3ccc(OCCO)cc3)CC2CCO)o1 (centres undefined) | > 15 µM | > 15 µM
C#CCOc1ccc(C2C(C#N)=C(N)Oc3cc(O)ccc32)cc1OCC (centres undefined) | 10.2 µM | > 15 µM
CCCC(=O)NC(c1ccc(Cl)cc1Cl)c1ccc2cccnc2c1O (centres undefined) | 3.57 µM | 2.24 µM
CCOc1ccc(C2c3cccn3CCN2C(=O)Nc2cccc(C)c2)cc1 (centres undefined) | > 15 µM | > 15 µM
Cn1c(-c2ccc([N+](=O)[O-])cc2)[n+](C)c2ccccc21 | 2.67 µM | > 15 µM
